Here are results for 35 molecules from patent US4182769A, “Anti-inflammatory 1-substituted-4,5-diaryl-2-(substituted-thio) imidazoles and their corresponding sulfoxides and sulfones” (E. I. Du Pont de Nemours and Company, priority 1978, dated 1980).

The first assay relates to adjuvant-induced arthritis in rats. Nature of the assay: Established Adjuvant-Induced Arthritis in Rats (A.A.). It counts as in vivo, Charles River Lewis male rats. The note with it: @ 3 mg/Kg, oral, rats.
For the molecule `Cn1c(S(=O)(=O)C(F)(F)F)nc(-c2ccc(F)cc2)c1-c1ccc(F)cc1` [Example 29], the “% paw volume reduction from control” value is on record as 33%.

The assay is the same for the next values; noted with them: @ 7 mg/Kg, oral, rats.
Regarding `CN(C)CCn1c(S(=O)(=O)C(F)(F)C(F)F)nc(-c2ccc(F)cc2)c1-c1ccc(F)cc1` [Example 27], the “% paw volume reduction from control” value came to 76%.

Still in this assay, the particulars now being: @ 9 mg/Kg, oral, rats.
As for `CCCn1c(S(=O)(=O)C(F)(F)C(F)F)nc(-c2ccc(F)cc2)c1-c1ccc(F)cc1` [Example 24], the “% paw volume reduction from control” value was 33%.

The assay is the same for the next values; noted with them: @ 10 mg/Kg, oral, rats.
In the case of `FC(F)(F)Sc1nc(-c2ccccc2)c(-c2ccccc2)n1COCc1ccccc1` [Example 1, 1-Benzyloxymethyl-4,5-diphenyl-2-trifluoromethylthioimidazole], the “% paw volume reduction from control” value stood at 34%.

Staying with this assay, now noted: @ 15 mg/Kg, oral, rats.
Regarding `CN(C)C(=S)n1c(SC(F)(F)C(F)F)nc(-c2ccccc2)c1-c1ccccc1` [Example 9, 1-(N,N-Dimethylthiocarbamoyl)-4,5-diphenyl-2-(1,1,2,2-tetrafluoroethylthio)imidazole], the “% paw volume reduction from control” value amounted to 53%.

The assay is the same for the next values; noted with them: @ 20 mg/Kg, oral, rats.
As to `COc1ccc(-c2nc(S(=O)(=O)C(F)(F)CF)n(C)c2-c2ccc(OC)cc2)cc1` [Example 31], the “% paw volume reduction from control” value is on record as 36%.

Staying with this assay, now noted: @ 25 mg/Kg, oral, rats.
As to `O=C(OCc1ccccc1)n1c(SC(F)(F)C(F)F)nc(-c2ccccc2)c1-c1ccccc1` [Example 12, 1-Benzyloxycarbonyl-4,5-diphenyl-2-(1,1,2,2-tetrafluoroethylthio)imidazole], the “% paw volume reduction from control” value was 69%.

The same assay, now with this note: Rattus norvegicus, po, read-out: A.A. ED50 % (ED50% decrease from control paw volume).
Take `CC(=O)Oc1ccccc1C(=O)O` [Aspirin, reference compound]: the ED50 is 305 mg/kg.

For the molecule `COc1ccc2c(c1)c(CC(=O)O)c(C)n2C(=O)c1ccc(Cl)cc1` [Indomethacin, reference compound], the ED50 was determined as 0.3 mg/kg.

Still in this assay, the particulars now being: Rattus norvegicus; oral, 7 daily doses, rats; determined as % paw volume reduction from control (uninjected, left hind paw); read-out: A.A. ED50 % (ED50% decrease from control paw volume).
For `FC(F)(F)Sc1nc(-c2ccccc2)c(-c2ccccc2)n1COCc1ccccc1` [Example 1, 1-Benzyloxymethyl-4,5-diphenyl-2-trifluoromethylthioimidazole], the ED50 is more than 10 mg/kg.

As for `FC(F)C(F)(F)Sc1nc(-c2ccccc2)c(-c2ccccc2)n1COCc1ccccc1` [Example 2, 1-Benzyloxymethyl-4,5-diphenyl-2-(1,1,2,2-tetrafluoroethylthio)imidazole], the 50% effective dose (ED50) worked out at 3.7 mg/kg.

For the molecule `CCOC(=O)n1c(SC(F)(F)C(F)F)nc(-c2ccccc2)c1-c1ccccc1` [Example 3, 4,5-Diphenyl-1-ethoxycarbonyl-2-(1,1,2,2-tetrafluoroethylthio)imidazole], the ED50 was found to be 2.3 mg/kg.

As for `O=S(=O)(c1nc(-c2ccccc2)c(-c2ccccc2)n1COCc1ccccc1)C(F)(F)C(F)F` [Example 4, 1-Benzyloxymethyl-4,5-diphenyl-2-(1,1,2,2-tetrafluoroethylsulfonyl)imidazole], the ED50 came to 1.3 mg/kg.

With `FC(F)(F)Sc1nc(-c2ccccc2)c(-c2ccccc2)n1C1CCCCO1` (stereo not drawn) [Example 5, 4,5-Diphenyl-1-(2-tetrahydropyranyl)-2-trifluoromethylthiomidazole], the ED50 worked out at 18 mg/kg.

As to `CCOC(=O)n1c(SC(F)(F)C(F)F)nc(-c2ccc(F)cc2)c1-c1ccc(F)cc1` [Example 6, 1-Ethoxycarbonyl-4,5-bis(4-fluorophenyl)-2-(1,1,2,2-tetrafluoroethylthio)imidazole], the ED50 was 0.15 mg/kg.

On to `Cn1c(S(=O)(=O)C(F)(F)C(F)F)nc(-c2ccc(F)cc2)c1-c1ccc(F)cc1` [Example 8, 4,5-bis(4-Fluorophenyl)-1-methyl-2-(1,1,2,2-tetrafluoroethylsulfonyl)imidazole], for which the ED50 is 1 mg/kg.

With `CN(C)C(=S)n1c(SC(F)(F)C(F)F)nc(-c2ccccc2)c1-c1ccccc1` [Example 9, 1-(N,N-Dimethylthiocarbamoyl)-4,5-diphenyl-2-(1,1,2,2-tetrafluoroethylthio)imidazole], the ED50 is less than 15 mg/kg.

Take `CNC(=O)N(C)C(=O)n1c(SC(F)(F)C(F)F)nc(-c2ccccc2)c1-c1ccccc1` [Example 11, N-Methyl-N-(methylaminocarbonyl)-4,5-diphenyl-2-(1,1,2,2-tetrafluoroethylthio)imidazole-1-carboxamide]: the ED50 turned out to be 1.8 mg/kg.

For the molecule `O=C(OCc1ccccc1)n1c(SC(F)(F)C(F)F)nc(-c2ccccc2)c1-c1ccccc1` [Example 12, 1-Benzyloxycarbonyl-4,5-diphenyl-2-(1,1,2,2-tetrafluoroethylthio)imidazole], the median effective dose (ED50) was less than 25 mg/kg.

Take `CC(C)(C)C(=O)OCn1c(S(=O)(=O)C(F)(F)C(F)F)nc(-c2ccc(F)cc2)c1-c1ccc(F)cc1` [Example 13, 4,5-bis(4-Fluorophenyl)-1-(pivaloyloxymethyl)-2-(1,1,2,2-tetrafluoroethylsulfonyl)imidazole]: the ED50 was determined as 1.2 mg/kg.

As for `O=S(=O)(c1ccccc1)n1c(SC(F)(F)C(F)F)nc(-c2ccccc2)c1-c1ccccc1` [Example 14, 1-Benzenesulfonyl-4,5-diphenyl-2-(1,1,2,2-tetrafluoroethylthio)imidazole], the ED50 is approximately 35 mg/kg.

Turning to `CC(=O)n1c(SC(F)(F)C(F)F)nc(-c2ccccc2)c1-c1ccccc1` [Example 15, 1-Acetyl-4,5-diphenyl-2-(1,1,2,2-tetrafluoroethylthio)imidazole], the ED50 is 0.9 mg/kg.

As for `FC(F)C(F)(F)Sc1nc(-c2ccccc2)c(-c2ccccc2)n1C1CCCO1` (stereo not drawn) [Example 16, 4,5-Diphenyl-2-(1,1,2,2-tetrafluoroethylthio)-1-(2-tetrahydrofuranyl)imidazole], the ED50 worked out at 2.7 mg/kg.

With `O=S(=O)(c1ccccc1)n1c(SC(F)(F)F)nc(-c2ccc(F)cc2)c1-c1ccc(F)cc1` [Example 17, 1-Benzenesulfonyl-4,5-bis(4-fluorophenyl)-2-(trifluoromethylthio)imidazole], the median effective dose (ED50) is 0.18 mg/kg.

Consider `CC(C)n1c(SC(F)(F)C(F)F)nc(-c2ccc(F)cc2)c1-c1ccc(F)cc1` [Example 18, 4,5-bis(4-Fluorophenyl)-1-isopropyl-2-(1,1,2,2-tetrafluoroethylthio)imidazole], for which the ED50 was 10 mg/kg.

In the case of `Cn1c(SC(F)(F)C(F)F)nc(-c2ccc(F)cc2)c1-c1ccc(F)cc1` [Example 19], the ED50 was determined as 2.3 mg/kg.

In the case of `CCn1c(SC(F)(F)C(F)F)nc(-c2ccc(F)cc2)c1-c1ccc(F)cc1` [Example 20], the ED50 was 3 mg/kg.

As to `CCCn1c(SC(F)(F)C(F)F)nc(-c2ccc(F)cc2)c1-c1ccc(F)cc1` [Example 21], the ED50 is 14 mg/kg.

On to `C=CCn1c(SC(F)(F)C(F)F)nc(-c2ccc(F)cc2)c1-c1ccc(F)cc1` [Example 22], for which the ED50 turned out to be 1.3 mg/kg.

Consider `CCn1c(S(=O)(=O)C(F)(F)C(F)F)nc(-c2ccc(F)cc2)c1-c1ccc(F)cc1` [Example 23], for which the 50% effective dose (ED50) turned out to be 4.8 mg/kg.

As for `CCCn1c(S(=O)(=O)C(F)(F)C(F)F)nc(-c2ccc(F)cc2)c1-c1ccc(F)cc1` [Example 24], the ED50 is more than 9 mg/kg.

Turning to `CCCCn1c(S(=O)(=O)C(F)(F)C(F)F)nc(-c2ccc(F)cc2)c1-c1ccc(F)cc1` [Example 25], the ED50 was 5 mg/kg.

Take `C=CCn1c(S(=O)(=O)C(F)(F)C(F)F)nc(-c2ccc(F)cc2)c1-c1ccc(F)cc1` [Example 26]: the ED50 worked out at 2 mg/kg.

For the molecule `CN(C)CCn1c(S(=O)(=O)C(F)(F)C(F)F)nc(-c2ccc(F)cc2)c1-c1ccc(F)cc1` [Example 27], the ED50 is less than 7 mg/kg.

For `Cn1c(SC(F)(F)F)nc(-c2ccc(F)cc2)c1-c1ccc(F)cc1` [Example 28], the ED50 worked out at 2.1 mg/kg.

Take `Cn1c(S(=O)(=O)C(F)(F)F)nc(-c2ccc(F)cc2)c1-c1ccc(F)cc1` [Example 29]: the ED50 was more than 3 mg/kg.

With `COc1ccc(-c2nc(S(=O)(=O)C(F)(F)CF)n(C)c2-c2ccc(OC)cc2)cc1` [Example 31], the ED50 was more than 20 mg/kg.

As to `CS(=O)(=O)n1c(SC(F)(F)C(F)F)nc(-c2ccccc2)c1-c1ccccc1` [Example 32], the ED50 was approximately 21 mg/kg.

With `O=C(c1ccccc1)n1c(SC(F)(F)C(F)F)nc(-c2ccccc2)c1-c1ccccc1` [Example 34], the ED50 amounted to 2.3 mg/kg.

Consider `CC(C)Cc1ccc(C(C)C(=O)O)cc1` (stereo not drawn) [Ibuprofen, reference compound], for which the ED50 was 100 mg/kg.

As to `CCCCC1C(=O)N(c2ccccc2)N(c2ccccc2)C1=O` [Phenylbutazone, reference compound], the ED50 came out at 10 mg/kg.

Still in this assay, the particulars now being: oral, 7 daily doses, rats; determined as % paw volume reduction from control (uninjected, left hind paw).
In the case of “Mixture of 1-Ethoxycarbonyl-4-(4-fluorophenyl)-5-phenyl-2-(1,1,2,2-tetrafluoroethylthio)imidazole and 1-Ethoxycarbonyl-5-(4-fluorophenyl)-4-phenyl-2-(1,1,2,2-tetrafluoroethylthio)imidazole [Example 7]”, the “A.A. ED50 % (ED50% decrease from control paw volume)” value is given as 0.65 mg/kg.

As usually defined, the ED50 is the midpoint of the dose-response relation.
